These results are taken from ChEMBL document CHEMBL1649172, “Novel imino sugar derivatives demonstrate potent antiviral activity against flaviviruses” (Antimicrob Agents Chemother, 2009).

The source made the active and inactive calls. The calls are words filed in the database; no cut-off is given here.

In general, EC50 refers to the midpoint of the concentration-response curve. For orientation: EC90 means the concentration at which the effect reaches the 90% level. A word on the CC50: it is the concentration that lowers cell viability or growth by half. In general, inhibition refers to the change of the read-out against control, counted positive when it falls.

Test system in one data set: not listed separately
The experiment in a line: Antiviral activity against 1 MOI Bovine viral diarrhea virus NADL infected in MDBK cells assessed as reduction in viral titer after 72 hrs by plaque forming assay. Type of data set: functional, cell-based, Bovine viral diarrhea virus 1-NADL. The following applies: Bovine viral diarrhea virus isolates and strains.
`CC(C)[C@@H]1CC[C@@H](C)CC1OCCCCCCN1C[C@H](O)[C@@H](O)[C@H](O)[C@H]1CO` (some centres undefined): the EC50 was 1.6 µM and the EC90 was 14.8 µM.

In the case of `OC[C@@H]1[C@@H](O)[C@H](O)[C@@H](O)CN1CCCCCC1(O)CCCCC1`, the concentration giving a half-maximal response (EC50) is 10.5 µM and the 90% effect concentration (EC90) was more than 100 µM.

Consider `CCCC(O)(CCC)CCCCCN1C[C@H](O)[C@@H](O)[C@H](O)[C@H]1CO`, for which the EC50 came to 9.5 µM and the concentration for an effect of 90% (EC90) is more than 100 µM.

Take `C[C@@H]1CCCCC1OCCCCCCN1C[C@H](O)[C@@H](O)[C@H](O)[C@H]1CO` (some centres undefined): the EC50 was 3.3 µM and the EC90 was found to be 14.3 µM.

`CCC(O)(CC)CCCCCN1C[C@H](O)[C@@H](O)[C@H](O)[C@H]1CO`: the EC50 was 22 µM and the EC90 was more than 100 µM.

As to `OC[C@@H]1[C@@H](O)[C@H](O)[C@@H](O)CN1CCCCCCC1(O)CCCCC1`, the EC50 worked out at 18 µM and the 90% effect concentration (EC90) is 82.5 µM.

Test system in another data set: not listed separately
The experiment in a line: Cytotoxicity against MDBK cells by MTT assay. To be noted: cattle. Type of data set: cell-based, Bos taurus.
Regarding `CC(C)[C@@H]1CC[C@@H](C)CC1OCCCCCCN1C[C@H](O)[C@@H](O)[C@H](O)[C@H]1CO` (some centres undefined), the midpoint of cytotoxicity, the CC50, lay at 235 µM.

`OC[C@@H]1[C@@H](O)[C@H](O)[C@@H](O)CN1CCCCCC1(O)CCCCC1` came in with a cytotoxic concentration (CC50) of more than 500 µM.

Regarding `CCCC(O)(CCC)CCCCCN1C[C@H](O)[C@@H](O)[C@H](O)[C@H]1CO`, the CC50 was more than 500 µM.

The compound `C[C@@H]1CCCCC1OCCCCCCN1C[C@H](O)[C@@H](O)[C@H](O)[C@H]1CO` (some centres undefined) came in with a CC50 of more than 500 µM.

For `CCC(O)(CC)CCCCCN1C[C@H](O)[C@@H](O)[C@H](O)[C@H]1CO`, the CC50 is more than 500 µM.

The compound `OC[C@@H]1[C@@H](O)[C@H](O)[C@@H](O)CN1CCCCCCC1(O)CCCCC1` yielded a CC50 of more than 500 µM.

Test system in a further data set: not listed separately
The experiment in a line: Selectivity index, ratio of CC50 for bovine MDBK cells to EC50 for 1 MOI Bovine viral diarrhea virus infected in bovine MDBK cells. The data set is classed as toxicity, cell-based. To be noted: cattle; read-out: Ratio CC50/EC50.
In the case of `CC(C)[C@@H]1CC[C@@H](C)CC1OCCCCCCN1C[C@H](O)[C@@H](O)[C@H](O)[C@H]1CO` (some centres undefined), the selectivity ratio was 146.

On to `OC[C@@H]1[C@@H](O)[C@H](O)[C@@H](O)CN1CCCCCC1(O)CCCCC1`, for which the selectivity ratio is more than 48.

Consider `CCCC(O)(CCC)CCCCCN1C[C@H](O)[C@@H](O)[C@H](O)[C@H]1CO`, for which the selectivity ratio was more than 53.

With `C[C@@H]1CCCCC1OCCCCCCN1C[C@H](O)[C@@H](O)[C@H](O)[C@H]1CO` (some centres undefined), the selectivity ratio is more than 151.

As to `CCC(O)(CC)CCCCCN1C[C@H](O)[C@@H](O)[C@H](O)[C@H]1CO`, the selectivity ratio is more than 23.

As to `OC[C@@H]1[C@@H](O)[C@H](O)[C@@H](O)CN1CCCCCCC1(O)CCCCC1`, the selectivity ratio is more than 28.

A further data set deals with Bovine viral diarrhea virus 1-NADL. The experiment in a line: Inhibition of […] assessed as reduced E2 protein mobility after 24 hrs by Western blotting.
Conditions: not given
`OC[C@@H]1[C@@H](O)[C@H](O)[C@@H](O)CN1CCCCCC1(O)CCCCC1`: the inhibition result is “Dose-dependent effect”.

Another data set has as its system MDBK. The experiment in a line: Antiviral activity against 1 MOI Bovine viral diarrhea virus NADL infected in bovine MDBK cells assessed as inhibition of viral RNA replication at 100 uM after 6 hrs by RT-PCR. The data set is classed as functional, cell-based. To be noted: Bovine viral diarrhea virus 1-NADL.
On to `OC[C@@H]1[C@@H](O)[C@H](O)[C@@H](O)CN1CCCCCC1(O)CCCCC1`, for which the inhibition result is “inactive”.

The subject of a further data set is MDBK. The experiment in a line: Antiviral activity against 1 MOI Bovine viral diarrhea virus NADL infected in bovine MDBK cells assessed as inhibition of viral RNA replication at 100 uM after 12 hrs by RT-PCR. The data set is classed as functional, cell-based. The following applies: Bovine viral diarrhea virus 1-NADL.
For the compound `OC[C@@H]1[C@@H](O)[C@H](O)[C@@H](O)CN1CCCCCC1(O)CCCCC1`, the inhibition entry was “inactive”.

Test system in a further data set: not listed separately
The experiment in a line: Antiviral activity against 1 MOI Bovine viral diarrhea virus NADL infected in bovine MDBK cells assessed as inhibition of viral RNA replication at 100 uM after 24 hrs by RT-PCR. Type of data set: functional, Bovine viral diarrhea virus 1-NADL. The following applies: Bovine viral diarrhea virus isolates and strains.
On to `OC[C@@H]1[C@@H](O)[C@H](O)[C@@H](O)CN1CCCCCC1(O)CCCCC1`, for which the inhibition at 100 µM was 40%.

Another data set concerns MDBK. The experiment in a line: Antiviral activity against 1 MOI Bovine viral diarrhea virus NADL infected in bovine MDBK cells assessed as inhibition of viral RNA replication at 80 uM after 6 hrs by RT-PCR. The data set is classed as functional, cell-based. To be noted: Bovine viral diarrhea virus 1-NADL.
As to `OC[C@@H]1[C@@H](O)[C@H](O)[C@@H](O)CN1CCCCCC1(O)CCCCC1`, the inhibition result is “inactive”.

For another data set, the system named is MDBK. The experiment in a line: Antiviral activity against 1 MOI Bovine viral diarrhea virus NADL infected in bovine MDBK cells assessed as inhibition of viral RNA replication at 80 uM after 12 hrs by RT-PCR. Type of data set: functional, cell-based. The following applies: Bovine viral diarrhea virus 1-NADL.
`OC[C@@H]1[C@@H](O)[C@H](O)[C@@H](O)CN1CCCCCC1(O)CCCCC1`: the inhibition entry was “inactive”.

Test system in the next data set: not listed separately
The experiment in a line: Antiviral activity against 1 MOI Bovine viral diarrhea virus NADL infected in bovine MDBK cells assessed as inhibition of viral RNA replication at 80 uM after 24 hrs by RT-PCR. The data set is classed as functional, Bovine viral diarrhea virus 1-NADL. The following applies: Bovine viral diarrhea virus isolates and strains.
For the compound `OC[C@@H]1[C@@H](O)[C@H](O)[C@@H](O)CN1CCCCCC1(O)CCCCC1`, the inhibition at 80 µM came out at 40%.

Test system in another data set: not listed separately
The experiment in a line: Antiviral activity against 1 MOI Bovine viral diarrhea virus NADL infected in bovine MDBK cells assessed as inhibition of intracellular viral RNA production at 100 uM after 24 hrs by RT-PCR. To be noted: Bovine viral diarrhea virus isolates and strains. Type of data set: functional, Bovine viral diarrhea virus 1-NADL.
Consider `OC[C@@H]1[C@@H](O)[C@H](O)[C@@H](O)CN1CCCCCC1(O)CCCCC1`, for which the inhibition at 100 µM amounted to 40%.

Test system in the next data set: not listed separately
The experiment in a line: Antiviral activity against 1 MOI Bovine viral diarrhea virus NADL infected in bovine MDBK cells assessed as inhibition of intracellular viral RNA production at 80 uM after 24 hrs by RT-PCR. The data set is classed as functional, Bovine viral diarrhea virus 1-NADL. The following applies: Bovine viral diarrhea virus isolates and strains.
As to `OC[C@@H]1[C@@H](O)[C@H](O)[C@@H](O)CN1CCCCCC1(O)CCCCC1`, the inhibition at 80 µM came out at 40%.

Test system in the next data set: not listed separately
The experiment in a line: Antiviral activity against 1 MOI Bovine viral diarrhea virus NADL infected in bovine MDBK cells assessed as inhibition of extracellular viral RNA production at 100 uM after 24 hrs by RT-PCR. The data set is classed as functional, Bovine viral diarrhea virus 1-NADL. The following applies: Bovine viral diarrhea virus isolates and strains.
Regarding `OC[C@@H]1[C@@H](O)[C@H](O)[C@@H](O)CN1CCCCCC1(O)CCCCC1`, the inhibition at 100 µM was found to be 73%.

Test system in the next data set: not listed separately
The experiment in a line: Antiviral activity against 1 MOI Bovine viral diarrhea virus NADL infected in bovine MDBK cells assessed as inhibition of extracellular viral RNA production at 80 uM after 24 hrs by RT-PCR. The data set is classed as functional, Bovine viral diarrhea virus 1-NADL. The following applies: Bovine viral diarrhea virus isolates and strains.
For the compound `OC[C@@H]1[C@@H](O)[C@H](O)[C@@H](O)CN1CCCCCC1(O)CCCCC1`, the inhibition at 80 µM turned out to be 73%.

Test system in another data set: not listed separately
The experiment in a line: Antiviral activity against 1 MOI Bovine viral diarrhea virus NADL infected in bovine MDBK cells assessed as reduction in viral titer at 100 uM after 24 hrs by RT-PCR. The data set is classed as functional, Bovine viral diarrhea virus 1-NADL. The following applies: Bovine viral diarrhea virus isolates and strains.
With `OC[C@@H]1[C@@H](O)[C@H](O)[C@@H](O)CN1CCCCCC1(O)CCCCC1`, the inhibition at 100 µM turned out to be 89%.

Test system in another data set: not listed separately
The experiment in a line: Antiviral activity against 1 MOI Bovine viral diarrhea virus NADL infected in bovine MDBK cells assessed as reduction in viral titer at 80 uM after 24 hrs by RT-PCR. The data set is classed as functional, Bovine viral diarrhea virus 1-NADL. The following applies: Bovine viral diarrhea virus isolates and strains.
On to `OC[C@@H]1[C@@H](O)[C@H](O)[C@@H](O)CN1CCCCCC1(O)CCCCC1`, for which the inhibition at 80 µM turned out to be 89%.

In the next data set the test system is Dengue virus. The experiment in a line: Antiviral activity against Dengue virus C infected in african green monkey Vero cells assessed as reduction in viral titer after 72 hrs by plaque reduction assay.
Conditions: not given
The data set is classed as functional, organism-based. A general note: Plaques are areas of infected cells; plaque reduction assays count them against a control.
In the case of `CC(C)[C@@H]1CC[C@@H](C)CC1OCCCCCCN1C[C@H](O)[C@@H](O)[C@H](O)[C@H]1CO` (some centres undefined), the EC50 was 0.1 µM and the EC90 amounted to 0.2 µM.

As to `OC[C@@H]1[C@@H](O)[C@H](O)[C@@H](O)CN1CCCCCC1(O)CCCCC1`, the concentration giving a half-maximal response (EC50) is 4 µM and the concentration for an effect of 90% (EC90) worked out at 8.7 µM.

As to `C[C@@H]1CCCCC1OCCCCCCN1C[C@H](O)[C@@H](O)[C@H](O)[C@H]1CO` (some centres undefined), the EC50 was 0.075 µM and the EC90 is 0.6 µM.

In the next data set the test system is West Nile virus. The experiment in a line: Antiviral activity against West Nile virus infected in baby hamster kidney cells assessed as reduction in viral titer after 72 hrs by plaque reduction assay. Type of data set: functional, organism-based.
Conditions: not given
As to `CC(C)[C@@H]1CC[C@@H](C)CC1OCCCCCCN1C[C@H](O)[C@@H](O)[C@H](O)[C@H]1CO` (some centres undefined), the concentration giving a half-maximal response (EC50) was determined as 4.75 µM and the EC90 stood at 19 µM.

Turning to `OC[C@@H]1[C@@H](O)[C@H](O)[C@@H](O)CN1CCCCCC1(O)CCCCC1`, the EC50 came to 4.5 µM.

For `C[C@@H]1CCCCC1OCCCCCCN1C[C@H](O)[C@@H](O)[C@H](O)[C@H]1CO` (some centres undefined), the EC50 came to 3.5 µM and the EC90 was found to be 33 µM.

Test system in another data set: not listed separately
The experiment in a line: Cytotoxicity against BHK cells by MTT assay. Type of data set: cell-based, Mesocricetus auratus. To be noted: hamster. In general terms: Tetrazolium dyes change colour on reduction, which living cells bring about.
`CC(C)[C@@H]1CC[C@@H](C)CC1OCCCCCCN1C[C@H](O)[C@@H](O)[C@H](O)[C@H]1CO` (some centres undefined) returned a cytotoxic concentration (CC50) of 70 µM.

As for `OC[C@@H]1[C@@H](O)[C@H](O)[C@@H](O)CN1CCCCCC1(O)CCCCC1`, the CC50 was more than 100 µM.

In the case of `C[C@@H]1CCCCC1OCCCCCCN1C[C@H](O)[C@@H](O)[C@H](O)[C@H]1CO` (some centres undefined), half-maximal cytotoxicity (CC50) was put at 70 µM.

Test system in another data set: not listed separately
The experiment in a line: Cytotoxicity against african green monkey Vero cells by MTT assay. The data set is classed as cell-based. To be noted: chlorocebus sabaeus.
Turning to `CC(C)[C@@H]1CC[C@@H](C)CC1OCCCCCCN1C[C@H](O)[C@@H](O)[C@H](O)[C@H]1CO` (some centres undefined), half-maximal cytotoxicity (CC50) was put at 80 µM.

`OC[C@@H]1[C@@H](O)[C@H](O)[C@@H](O)CN1CCCCCC1(O)CCCCC1`: the half-maximal cytotoxic concentration (CC50) is more than 40 µM.

`C[C@@H]1CCCCC1OCCCCCCN1C[C@H](O)[C@@H](O)[C@H](O)[C@H]1CO` (some centres undefined) registered a CC50 of 65 µM.
